From patent US10414718B2, “Dezocine analogue” (priority 2016, dated 2019)
Counter-ions that a name gives are not always drawn.

How the values were obtained:
δ opioid receptor = molecular target: T1, δ opioid receptor (Homo sapiens, UniProt P41143); assay: FLIPR intracellular calcium signal test, HEK293-δ cells; assay type: cell-based; settings: for EC50: EC50 (activation) test, read-out: Delt receptor EC50; for IC50: IC50 (inhibition) test against EC80 of positive agonist, read-out: Delt receptor IC50
T1 construct: expressed in transfected cells
Description: (§1) Fluorescence imaging plate reader FLIPR was used to detect changes of intracellular calcium signals. EC50 and IC50 values of the compounds were used as indicators to evaluate the activation or inhibition of the compounds on μ, κ, and δ opioid receptors.
(§2) Cell lines: HEK293-μ, HEK293-κ and HEK293-δ, stable-transfected cell lines HEK293-μ, HEK293-κ and HEK293-δ; Cell culture media (DMEM, Invitrogen #11965118, 10% fetal bovine serum Invitrogen #10099141, Geneticin Selective Antibiotic (G418) 300 μg/mL, Invitrogen #10131027, Blasticidin-S HCL 2 ug/mL Invitrogen #A1113902)
(§3) 1. Cell Seeding (HEK293-μ, HEK293-κ and HEK293-δ Cells)
(§4) 1) Preheating medium, pancreatic enzyme, and DPBS in a 37° C. water bath. Aspirating the culture medium from the cell culture flask and washing it with 10 mL DPBS;
(§5) 2) Adding the preheated pancreatic enzyme solution to the cell culture flask, rotating the flask slightly to make the pancreatic enzymes evenly cover the cell surface of the flask, and then putting it into a 37° C., 5% CO2 incubator to digest for 1-2 minutes;
(§6) 3) Suspending the cells with 10-15 mL culture medium in each T150 cm^2 cell culture flask, centrifugating at 800 rpm for 5 minutes, and resuspending the cells with 10 mL culture medium, aspirating 1 mL cell resuspension to be counted with Vi-cell;
(§7) 4) Diluting HEK293-μ, HEK293-κ and HEK293-δ cells to 5×10^5/mL with culture medium, use multichannel pipette to add diluted cells into 384 plate (Greiner #781946) (50 μL/well, 25000 cells/well for HEK293-μ, HEK293-κ and HEK293-δ cells). Placing the cell plate in a 37° C., 5% CO2 incubator overnight.
(§8) 2. Adding Compound Samples:
(§9) 1) Diluting the compound to 20 mM with DMSO, 3 fold diluted, 8 gradients, double reduplicative wells, and adding it to the compound plate using an Echo ultrasonic liquid handler device (Echo liquid handler).
(§10) 1) Washing off the cell culture medium in 384 plate with vacuum pump, adding 20 μL Fluo-4 Direct fluorescent dye, then incubating in a 37° C., 5% CO2 incubator for 50 minutes, followed by equilibrating at room temperature for 10 minutes.
(§11) 2) EC50 test: Adding 20 uL HBSS buffer (containing 20 mM HEPES) to the compound plate, mixing well and centrifugating. Placing the cell plate and compound plate into FLIPR and reading the fluorescence value.
(§12) Calculating the EC80 value with the EC50 value of the positive agonist, preparing 4× EC80 solution, adding it to the 384 compound plate by multichannel pipette, and mixing well and centrifugating.
(§13) 4) IC50 test: In FLIPR, successively placing 4× EC80 plate, cell plate, FLIPR tip, running the program and reading the fluorescence value.
(§14) 4. Data Analyzing: Using Prism 5.0 to Analyze the Data and Calculate the EC50 and IC50 Values of the Compounds.

μ opioid receptor = molecular target: T2, μ opioid receptor (Homo sapiens, UniProt P35372); assay: FLIPR intracellular calcium signal test, HEK293-μ cells; assay type: cell-based; settings: for EC50: EC50 (activation) test, read-out: Mu receptor EC50; for IC50: IC50 (inhibition) test against EC80 of positive agonist, read-out: Mu receptor IC50
T2 construct: expressed in transfected cells
Description: as §1, §2, §3, §4, §5, §6, §7, §8, §9, §10, §11, §12, §13, §14

κ opioid receptor = molecular target: T3, κ opioid receptor (Homo sapiens, UniProt P41145); assay: FLIPR intracellular calcium signal test, HEK293-κ cells; assay type: cell-based; settings: for EC50: EC50 (activation) test, read-out: Kapp receptor EC50; for IC50: IC50 (inhibition) test against EC80 of positive agonist, read-out: Kapp receptor IC50
T3 construct: expressed in transfected cells
Description: as §1, §2, §3, §4, §5, §6, §7, §8, §9, §10, §11, §12, §13, §14

[1] = Pharmacokinetic study of intravenous injection in rats; settings: SD, rat, plasma, 1 mg/kg
Text: Through the in vivo drug metabolism test in rats, values such as Cmax, t1/2, AUC, MRT and B/P ratio of the compound in vivo were used as indicators to evaluate the metabolism of the compound in rats.
1. Pharmacokinetic Study of Intravenous Injection of Dezocine and Analogues Thereof in Rats
Mixing the test compound with an appropriate amount of physiological saline solution of 20% polyethylene glycol 400, followed by vortex and sonicate, and adjusting the pH to 4-5 with hydrochloric acid to obtain 5 mg/mL approximately clear solution, filtering the solution by microporous filtering film to be used. Selecting 6 to 9 weeks old SD rats (Shanghai Sleek Laboratory Animal Co., Ltd.) and intravenously injecting the test compound solution at a dose of 1 mg/kg. Collecting whole blood in certain time to prepare and obtain plasma. Analyzing drug concentrations by LC-MS/MS method and calculating pharmacokinetic parameters using Phoenix WinNonlin software (Pharsight, USA).

T3 sequence (P41145 whole entry): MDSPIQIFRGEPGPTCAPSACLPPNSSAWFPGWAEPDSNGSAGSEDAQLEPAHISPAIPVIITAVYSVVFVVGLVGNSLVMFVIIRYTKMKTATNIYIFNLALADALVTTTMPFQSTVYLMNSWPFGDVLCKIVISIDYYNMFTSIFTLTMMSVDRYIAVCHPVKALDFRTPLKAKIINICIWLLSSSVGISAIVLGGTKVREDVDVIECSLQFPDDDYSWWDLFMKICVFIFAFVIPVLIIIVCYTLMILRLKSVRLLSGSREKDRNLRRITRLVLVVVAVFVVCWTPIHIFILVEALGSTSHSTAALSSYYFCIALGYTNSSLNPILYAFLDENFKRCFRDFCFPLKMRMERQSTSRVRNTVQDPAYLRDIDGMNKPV
T2 sequence (P35372 whole entry): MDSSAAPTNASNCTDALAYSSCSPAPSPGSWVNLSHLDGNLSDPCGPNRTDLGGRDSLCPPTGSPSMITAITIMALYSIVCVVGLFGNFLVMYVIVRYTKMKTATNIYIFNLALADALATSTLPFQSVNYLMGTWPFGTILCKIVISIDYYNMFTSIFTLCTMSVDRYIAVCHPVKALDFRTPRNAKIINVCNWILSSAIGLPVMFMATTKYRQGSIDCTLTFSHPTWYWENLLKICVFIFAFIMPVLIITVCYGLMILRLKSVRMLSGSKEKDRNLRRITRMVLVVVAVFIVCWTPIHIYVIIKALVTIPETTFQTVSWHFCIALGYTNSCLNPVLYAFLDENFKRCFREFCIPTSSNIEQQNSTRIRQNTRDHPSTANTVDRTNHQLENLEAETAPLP
T1 sequence (P41143 whole entry): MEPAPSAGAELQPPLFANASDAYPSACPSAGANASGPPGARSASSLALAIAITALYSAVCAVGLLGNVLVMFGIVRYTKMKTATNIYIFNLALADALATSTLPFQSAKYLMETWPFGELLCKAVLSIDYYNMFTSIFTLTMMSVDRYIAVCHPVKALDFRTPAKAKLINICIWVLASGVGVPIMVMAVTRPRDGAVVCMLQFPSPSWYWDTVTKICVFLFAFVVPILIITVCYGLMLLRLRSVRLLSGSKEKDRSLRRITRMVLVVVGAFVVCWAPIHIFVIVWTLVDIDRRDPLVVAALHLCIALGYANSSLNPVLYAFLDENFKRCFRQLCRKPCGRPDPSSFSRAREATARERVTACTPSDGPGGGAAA

Compound | EC50 (δ opioid receptor) [µM] | IC50 (δ opioid receptor) [µM] | EC50 (μ opioid receptor) [µM] | IC50 (μ opioid receptor) [µM] | EC50 (κ opioid receptor) [µM] | IC50 (κ opioid receptor) [µM] | AUC(0-t) [1] [µM·h] | C0 [1] [nM] | MRT last [1] [h] | Vd [1] [L/kg] | clearance [1] [mL/min/kg] | half-life [1] [min]
CC(C)c1cc(O)cc2c1CC1CCCCCC2(C)C1N (stereo not shown) [Compound 10] | > 100 | > 100 | > 100 | 10 to 100 | > 100 | 10 to 100 |  |  |  |  |  | 
CC12CCCCCC(Cc3cc(C4CC4)c(O)cc31)C2N (stereo not shown) [Compound 15] | > 100 | > 100 | > 100 | > 100 | 10 to 100 | > 100 |  |  |  |  |  | 
CC12CCCCCC(Cc3cc(F)c(O)cc31)C2N (stereo not shown) [Hydrochloride of Compound 17] | > 100 | > 100 | 1 to 10 | 1 to 10 | > 100 | 10 to 100 |  |  |  |  |  | 
CC12CCCCCC(Cc3ccc(O)c(F)c31)C2N (stereo not shown) [Compound 4] | > 100 | > 100 | 0.1 to 1 | 0.1 to 1 | > 100 | 1 to 10 |  |  |  |  |  | 
CC12CCCCCC(Cc3c(CO)cc(O)cc31)C2N (stereo not shown) [Compound 18] | > 100 | > 100 | > 100 | 1 to 10 | > 100 | > 100 |  |  |  |  |  | 
CC12CCCCC(Cc3c(F)cc(O)cc31)C2N (single isomer, unassigned) [Compound 33] | 1 to 10 | 1 to 10 | 0.1 to 1 | 1 to 10 | 0.1 to 1 | 0.1 to 1 |  |  |  |  |  | 
CC12CCCCCC(Cc3cc(O)c(O)cc31)C2N (stereo not shown) [Compound 5] | > 100 | > 100 | 1 to 10 | 10 to 100 | 1 to 10 | 10 to 100 |  |  |  |  |  | 
C[C@@]12CCOCC[C@@H](Cc3ccc(O)cc31)[C@@H]2N [Compound 25] | > 100 | 1 to 10 | 0.1 to 1 | 1 to 10 | > 100 | 1 to 10 |  |  |  |  |  | 
CC12CCCCCC(Cc3c(O)cc(O)cc31)C2N (stereo not shown) [Compound 27] | > 100 | > 100 | > 100 | 1 to 10 | > 100 | 10 to 100 |  |  |  |  |  | 
C[C@@]12CCCCC[C@@H](Cc3ccc(O)cc31)[C@@H]2N (relative stereo) [Dezocine, (−)-[5R-(5α,11α,13S*)]-13-amino-5,6,7,8,9,10,11,12-octahydro-5-methyl-5,11-methan obenzocyclodecen-3-ol] |  |  |  |  |  |  | 0.485 | 684 | 1.22 | 12.2 | 139 | 75.6
CC12CCCCCC(Cc3cc(Br)c(O)cc31)C2N (stereo not shown) [Compound 12] | > 100 | > 100 | 10 to 100 | 10 to 100 | > 100 | > 100 |  |  |  |  |  | 
CCc1cc(O)cc2c1CC1CCCCCC2(C)C1N (stereo not shown) [Compound 9] | > 100 | > 100 | > 100 | 1 to 10 | > 100 | 1 to 10 |  |  |  |  |  | 
COc1cc(O)cc2c1CC1CCCCCC2(C)C1N (stereo not shown) [Compound 7] | > 100 | > 100 | > 100 | 1 to 10 | > 100 | 1 to 10 |  |  |  |  |  | 
CC12CCCCCC(Cc3cc(C#N)c(O)cc31)C2N (stereo not shown) [Compound 19] | > 100 | > 100 | > 100 | > 100 | > 100 | > 100 |  |  |  |  |  | 
CC12CCCCCC(Cc3c(-c4ccccc4)cc(O)cc31)C2N (stereo not shown) [Compound 11] | > 100 | > 100 | > 100 | > 100 | 10 to 100 | > 100 |  |  |  |  |  | 
Cc1cc2c(cc1O)C1(C)CCCCCC(C2)C1N (stereo not shown) [Compound 14] | > 100 | > 100 | 10 to 100 | 10 to 100 | > 100 | 10 to 100 |  |  |  |  |  | 
C[C@]12CCOCC[C@H](Cc3ccc(O)cc31)[C@H]2N [Compound 26] | > 100 | > 100 | > 100 | 10 to 100 | > 100 | > 100 |  |  |  |  |  | 
CC12CCCCCC(Cc3cc(Cl)c(O)cc31)C2N (stereo not shown) [Hydrochloride of Compound 16] | > 100 | > 100 | 10 to 100 | 1 to 10 | > 100 | 1 to 10 |  |  |  |  |  | 
CC12CCCCCC(Cc3c(F)cc(O)cc31)C2N (stereo not shown) [Compound 6] | > 100 | 1 to 10 | ≤ 0.1 | 0.1 to 1 | > 100 | 1 to 10 |  |  |  |  |  | 
CC12CCOCCC(Cc3ccc(O)cc31)C2N (stereo not shown) [Compound 8] | > 100 | > 100 | 0.1 to 1 | 1 to 10 | > 100 | 1 to 10 |  |  |  |  |  | 
CCCC12CCCCC(Cc3c(F)cc(O)cc31)C2N (stereo not shown) [Compound 30] | > 100 | 10 to 100 | 0.1 to 1 | 0.1 to 1 | > 100 | 0.1 to 1 |  |  |  |  |  | 
CC(C)c1cc2c(cc1O)C1(C)CCCCCC(C2)C1N (stereo not shown) [Compound 13] | > 100 | > 100 | 10 to 100 | 10 to 100 | 10 to 100 | 10 to 100 |  |  |  |  |  | 
C[C@]12CCCCC[C@H](Cc3c(F)cc(O)cc31)[C@@H]2N [Compound 22] | > 100 | 10 to 100 | 1 to 10 | 0.1 to 1 | > 100 | 1 to 10 |  |  |  |  |  | 
CC12CCCCCC(Cc3ccc(O)cc31)C2N (stereo not shown) [Compound 2, reference compound] | > 100 | > 100 |  |  | > 100 | 1 to 10 |  |  |  |  |  | 
Cc1cc(O)cc2c1CC1CCCCCC2(C)C1N (stereo not shown) [Compound 1] | > 100 | 1 to 10 | > 100 | ≤ 0.1 | > 100 | 0.1 to 1 |  |  |  |  |  | 
C[C@]12CCCCC[C@H](Cc3c(Cl)cc(O)cc31)[C@H]2N [Compound 24] | > 100 | 1 to 10 | 10 to 100 | 0.1 to 1 | > 100 | 1 to 10 |  |  |  |  |  | 
CC12CCCCCC(Cc3cc(Cl)c(O)c(Cl)c31)C2N (stereo not shown) [Compound 20] | > 100 | > 100 | > 100 | 10 to 100 | > 100 | 10 to 100 |  |  |  |  |  | 
CC12CCCCC(Cc3c(F)cc(O)cc31)C2N (single isomer, unassigned) [Compound 32] | > 100 | 1 to 10 | 0.1 to 1 | 0.1 to 1 | 0.1 to 1 | 0.1 to 1 |  |  |  |  |  | 
CC(C)CC12CCCCC(Cc3c(F)cc(O)cc31)C2N (stereo not shown) [Compound 31] | > 100 | > 100 | 10 to 100 | 10 to 100 | > 100 | 10 to 100 |  |  |  |  |  | 
CC12CCCCCC(Cc3c(Cl)cc(O)cc31)C2N (stereo not shown) [Compound 3] | > 100 | 1 to 10 | 0.1 to 1 | 0.1 to 1 | > 100 | 0.1 to 1 |  |  |  |  |  | 
